# In patent EP0535528A1, “Antibacterial 5-Nitro-1-methyl-imidazolyl-3-terbutyl-2-hydroxy-aryl-carbinols” (EURORESEARCH S.r.L., priority 1991, dated 1993):
# Assays:
# [1] = test system: Helicobapter pylori; assay: Minimal inhibiting concentration (agar dilution); format: cell-based
# Experimental: Substances under examination: EU11100, EU11102, EU11103, EU11104. Comparison substance: Metronidazole Solubilization of the substances: All the substances to be studied are dissolved at room temperature in DMSO. […] 10 strains of Helicobapter pylori are used of recent clinical isolation […] The sowing of the bacteria, prepared as described in the preceding test is carried out by means a "multi-point inoculator". After 48 hours incubation under the condition described in the preceding test, the plates are examined and the Minimal Inhibiting Concentration is evaluated, namely that dose corresponding to growth absence.
# [2] = test system: Helicobapter pylori; assay: Inhibition halos of the bacterial growth (impregnated disks on agar); format: cell-based; conditions: for activity against the Helicobapter pylori strains used: 10 strains; for Inhibition halo (mm), Average: average of 10 strains
# Experimental: Comparison substance: Metronidazole Solubilization of the substances : All the substances to be studied are dissolved at room temperature in DMSO.
# Some commercially available antibiogram disks are so impregnated with the above mentioned compounds that each disk has concentration equal to 10, 1, 0.1, 0.01 µg.
# 10 strains of Helicobapter pylori are used of recent clinical isolation.
# Columbia Blood Agar Base is used, containing 5% of defibrinated horse blood, 2 % of calf serum, 2 vials of Vitox per liter of medium and Vancomicine (10 µg/ml) Trimetoprim lactate(5 µg/ml) and Polimixin B (2.5 U/ml).
# 0.1 ml of a suspension of the different used strains are uniformly distributed onto Petri plates, containing 20 ml of Columbia Blood Agar base, obtained by taking a sample, by means of a platinum loop, of different colonies from a 48 hours culture, grown in anaerobiosis jars with "Gas Pack", without a catalyst and diluted into a physiological solution.
# 4 disks per plate, previously impregnated with the substances under examination, are then placed onto the agar layer of each plate.
# After 48 hours of anaerobiosis incubation, as above described, the inhibition halos of the bacterial growth, produced by the different activity of the substances inside the agar, are evaluated.
# [3] = test system: Swiss female albino mice; assay: Oral and intraperitoneal acute toxicity in mice (LD50, Probits method); format: in vivo; conditions: mice
# Experimental: 20 Swiss female albino mice are used for this test of the average weight of 20 g (±2), coming from Nossan breeding .
# Cages: in Makrolon® with saw dust litter, Number of animals per cage: 5 Acclimation period: 1 week Temperature: 22°C (± 2°C) Humidity : 60%, Diet: pellets for mice produced by Nossan firm, Water ad libitum Fast before the treatment: 16 hours
# Oral by gastric route and intraperitoneal.
# The substances to be studied: EU11100, EU11102, EU11103, EU11104 are treated with 0.5% carboxymethylcellulose in spring water, for the oral administration, whereas the same substances are intraperitoneally administered in the form of a physiological solution .
# For each of the above mentioned substances, a mother suspension is prepared having a concentration in the active ingredient of 250 mg/ml for the oral administration, and analogously a mother suspension is prepared for the intraperitoneal administration having a concentration of the desired active principle of 100 mg/ml.
# The following doses are used • a) oral route: 5000 mg/kg • b) intraperitoneal route : 2000 mg/kg
# If mortality is observed at the above mentioned doses, other doses are administered in order to obtain a dose-response curve.
# 5 animals are used for every utilized concentration.
# After the administration of the above substances the animals are kept under observation for 14 days , during which the mortality and the behaviour is observed.
# LD₅₀ is determined on the base of the cumulative mortality observed in the successive 14 days after the administration by using the Probits method.
compound,measurement,setting,value
"Cn1c([N+](=O)[O-])cnc1C(O)c1cc(C(C)(C)C)cc(C(C)(C)C)c1O (stereo not shown) [EU11102, 5-nitro-1-methyl-imidazolyl-3,5-diterbutyl-2-hydroxy-phenyl-carbinol]",MIC50,[1]; 10 strains,0.25 µg/mL
same,MIC90,[1]; 10 strains,0.5 µg/mL
same,MIC range,[1]; 10 strains,0.25 to 0.5 µg/mL
same,MIC,[1]; strain 1,0.5 µg/mL
same,MIC,[1]; strain 2,0.25 µg/mL
same,MIC,[1]; strain 3,0.25 µg/mL
same,MIC,[1]; strain 4,0.5 µg/mL
same,MIC,[1]; strain 5,0.25 µg/mL
same,MIC,[1]; strain 6,0.5 µg/mL
same,MIC,[1]; strain 7,0.25 µg/mL
same,MIC,[1]; strain 8,0.25 µg/mL
same,MIC,[1]; strain 9,0.25 µg/mL
same,MIC,[1]; strain 10,0.25 µg/mL
same,activity against the Helicobapter pylori strains used,[2]; 1 µg/disk,active against all the Helicobapter pylori used
same,activity against the Helicobapter pylori strains used,[2]; disk test,active against all the Helicobapter pylori strains used
same,"Inhibition halo (mm), Average",[2]; 1 µg/disk,15.1 mm
same,"Inhibition halo (mm), Average",[2]; 10 µg/disk,22.9 mm
same,Inhibition halo (mm) at the concentration (µg/disk),"[2]; strain 1, 0.01 µg/disk",0 mm
same,Inhibition halo (mm) at the concentration (µg/disk),"[2]; strain 1, 0.1 µg/disk",0 mm
same,Inhibition halo (mm) at the concentration (µg/disk),"[2]; strain 1, 1 µg/disk",15 mm
same,Inhibition halo (mm) at the concentration (µg/disk),"[2]; strain 1, 10 µg/disk",23 mm
same,Inhibition halo (mm) at the concentration (µg/disk),"[2]; strain 2, 0.01 µg/disk",0 mm
same,Inhibition halo (mm) at the concentration (µg/disk),"[2]; strain 2, 0.1 µg/disk",0 mm
same,Inhibition halo (mm) at the concentration (µg/disk),"[2]; strain 2, 10 µg/disk",22 mm
same,Inhibition halo (mm) at the concentration (µg/disk),"[2]; strain 3, 0.01 µg/disk",0 mm
same,Inhibition halo (mm) at the concentration (µg/disk),"[2]; strain 3, 0.1 µg/disk",0 mm
same,Inhibition halo (mm) at the concentration (µg/disk),"[2]; strain 3, 1 µg/disk",12 mm
same,Inhibition halo (mm) at the concentration (µg/disk),"[2]; strain 3, 10 µg/disk",22 mm
same,Inhibition halo (mm) at the concentration (µg/disk),"[2]; strain 4, 0.01 µg/disk",0 mm
same,Inhibition halo (mm) at the concentration (µg/disk),"[2]; strain 4, 0.1 µg/disk",0 mm
same,Inhibition halo (mm) at the concentration (µg/disk),"[2]; strain 4, 1 µg/disk",16 mm
same,Inhibition halo (mm) at the concentration (µg/disk),"[2]; strain 4, 10 µg/disk",24 mm
same,Inhibition halo (mm) at the concentration (µg/disk),"[2]; strain 5, 0.01 µg/disk",0 mm
same,Inhibition halo (mm) at the concentration (µg/disk),"[2]; strain 5, 0.1 µg/disk",0 mm
same,Inhibition halo (mm) at the concentration (µg/disk),"[2]; strain 5, 1 µg/disk",16 mm
same,Inhibition halo (mm) at the concentration (µg/disk),"[2]; strain 5, 10 µg/disk",22 mm
same,Inhibition halo (mm) at the concentration (µg/disk),"[2]; strain 6, 0.01 µg/disk",0 mm
same,Inhibition halo (mm) at the concentration (µg/disk),"[2]; strain 6, 0.1 µg/disk",0 mm
same,Inhibition halo (mm) at the concentration (µg/disk),"[2]; strain 6, 1 µg/disk",17 mm
same,Inhibition halo (mm) at the concentration (µg/disk),"[2]; strain 6, 10 µg/disk",25 mm
same,Inhibition halo (mm) at the concentration (µg/disk),"[2]; strain 7, 0.01 µg/disk",0 mm
same,Inhibition halo (mm) at the concentration (µg/disk),"[2]; strain 7, 0.1 µg/disk",0 mm
same,Inhibition halo (mm) at the concentration (µg/disk),"[2]; strain 7, 1 µg/disk",14 mm
same,Inhibition halo (mm) at the concentration (µg/disk),"[2]; strain 7, 10 µg/disk",21 mm
same,Inhibition halo (mm) at the concentration (µg/disk),"[2]; strain 8, 0.01 µg/disk",0 mm
same,Inhibition halo (mm) at the concentration (µg/disk),"[2]; strain 8, 0.1 µg/disk",0 mm
same,Inhibition halo (mm) at the concentration (µg/disk),"[2]; strain 8, 1 µg/disk",15 mm
same,Inhibition halo (mm) at the concentration (µg/disk),"[2]; strain 8, 10 µg/disk",23 mm
same,Inhibition halo (mm) at the concentration (µg/disk),"[2]; strain 9, 0.01 µg/disk",0 mm
same,Inhibition halo (mm) at the concentration (µg/disk),"[2]; strain 9, 0.1 µg/disk",0 mm
same,Inhibition halo (mm) at the concentration (µg/disk),"[2]; strain 9, 1 µg/disk",16 mm
same,Inhibition halo (mm) at the concentration (µg/disk),"[2]; strain 9, 10 µg/disk",24 mm
same,Inhibition halo (mm) at the concentration (µg/disk),"[2]; strain 10, 0.01 µg/disk",0 mm
same,Inhibition halo (mm) at the concentration (µg/disk),"[2]; strain 10, 0.1 µg/disk",0 mm
same,Inhibition halo (mm) at the concentration (µg/disk),"[2]; strain 10, 1 µg/disk",15 mm
same,Inhibition halo (mm) at the concentration (µg/disk),"[2]; strain 10, 10 µg/disk",23 mm
same,toxicity when intraperitoneally administered,"[3]; intraperitoneal, 2000 mg/kg",not toxic
same,toxicity when orally administered,"[3]; oral, 5000 mg/kg",not toxic
